PubChem BioAssay AID328 (DTP/NCI, 2004)
Inconclusive results and toxic doses are left out. Non-standard residues stand in square brackets, D forms with d. Residues, ends and D or L forms follow the SMILES beside them. ξ: configuration not given here. ξLac(3-iPr) = CC(C)CC(O)C(=O)O; NMeV = CN[CH](C(=O)O)C(C)C; NMeA = CN[CH](C)C(=O)O; βAla = NCCC(=O)O

Tested on: BDF1 mice, P388 leukemia ip, median survival T/C
Experiment: NCI In Vivo Anticancer Drug Screen. Data for tumor model P388 Leukemia (intraperitoneal) in B6D2F1 (BDF1) mice
Conditions: endpoint: median survival time, higher = longer survival
Procedure, shortened: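 In tumour-bearing mice, survival after compound treatment is set against the vehicle group and given as a quotient.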

[1] = dose: 6.0 mg/kg/injection, schedule: Q01DX009 (ip), vehicle: saline
[2] = dose: 12.0 mg/kg/injection, schedule: Q01DX009 (ip), vehicle: saline
[3] = dose: 12.5 mg/kg/injection, schedule: Q01DX009 (ip), vehicle: saline with Tween-80

## COc1cc2c(c(OC)c1OC)-c1cc3c(cc1[C@@H](OC(C)=O)[C@@H]1COC(=O)[C@H]1C2)OCO3
dose: 1.0 mg/kg/injection, schedule: Q01DX009 (ip), vehicle: saline + alcohol
  T/C: 118 % of control
dose: 1.3 mg/kg/injection, schedule: Q01DX009 (ip), vehicle: saline
  T/C: 100 % of control
dose: 1.77 mg/kg/injection, schedule: Q01DX009 (ip), vehicle: saline
  T/C: 100 % of control
dose: 2.0 mg/kg/injection, schedule: Q01DX009 (ip), vehicle: saline + alcohol
  T/C: 118 % of control
dose: 2.0 mg/kg/injection, schedule: Q01DX009 (ip), vehicle: saline
  T/C: 100 % of control
dose: 2.66 mg/kg/injection, schedule: Q01DX009 (ip), vehicle: saline
  T/C: 90 % of control
dose: 3.0 mg/kg/injection, schedule: Q01DX009 (ip), vehicle: saline
  T/C: 104 % of control
dose: 4.0 mg/kg/injection, schedule: Q01DX009 (ip), vehicle: saline + alcohol
  T/C: 118 % of control
dose: 4.0 mg/kg/injection, schedule: Q01DX009 (ip), vehicle: saline
  T/C: 90 % of control
[1]
  T/C: 100 % of control
dose: 6.22 mg/kg/injection, schedule: Q01DX009 (ip), vehicle: saline + alcohol
  T/C: 116 % of control
dose: 8.0 mg/kg/injection, schedule: Q01DX009 (ip), vehicle: saline + alcohol
  T/C: 113 % of control
dose: 8.9 mg/kg/injection, schedule: Q01DX009 (ip), vehicle: saline
  T/C: 104 % of control
dose: 9.33 mg/kg/injection, schedule: Q01DX009 (ip), vehicle: saline + alcohol
  T/C: 112 % of control
[2]
  T/C: 115 % of control
dose: 13.3 mg/kg/injection, schedule: Q01DX009 (ip), vehicle: saline
  T/C: 113 % of control
dose: 14.0 mg/kg/injection, schedule: Q01DX009 (ip), vehicle: saline + alcohol
  T/C: 120 % of control
dose: 18.0 mg/kg/injection, schedule: Q01DX009 (ip), vehicle: saline
  T/C: 100 % of control
dose: 20.0 mg/kg/injection, schedule: Q01DX009 (ip), vehicle: saline
  T/C: 109 % of control
dose: 21.0 mg/kg/injection, schedule: Q01DX009 (ip), vehicle: saline + alcohol
  T/C: 91 % of control

## COc1ccccc1NC(=O)O/N=C/c1ccccn1
dose: 100.0 mg/kg/injection, schedule: Q01DX001 (ip), vehicle: other
  T/C: 100 % of control
dose: 200.0 mg/kg/injection, schedule: Q01DX001 (ip), vehicle: other
  T/C: 95 % of control
dose: 400.0 mg/kg/injection, schedule: Q01DX001 (ip), vehicle: other
  T/C: 95 % of control

## O=S1(=O)CC2(N3CCOCC3)C3CCC(C3)C21 (configuration not stated)
dose: 100.0 mg/kg/injection, schedule: Q04DX003 (ip), vehicle: saline with Tween-80
  T/C: 111 % of control
dose: 400.0 mg/kg/injection, schedule: Q04DX003 (ip), vehicle: saline with Tween-80
  T/C: 92 % of control

## C=C(C)C12CC(COC(=O)c3ccccc3)C34OC5(OC1C3C1OC1(CO)C(O)C1(O)C(OC(=O)c3ccccc3)C(C)C(C(C)CCCCCCC5O)C14)O2 (configuration not stated)
dose: 0.25 mg/kg/injection, schedule: Q01DX009 (ip), vehicle: saline
  T/C: 113 % of control
dose: 0.5 mg/kg/injection, schedule: Q01DX009 (ip), vehicle: saline
  T/C: 122 % of control
dose: 0.75 mg/kg/injection, schedule: Q01DX009 (ip), vehicle: saline
  T/C: 150 % of control
dose: 0.5 micrograms/kg/injection, schedule: Q01DX009 (ip), vehicle: saline + alcohol
  T/C: 111 % of control
dose: 0.8 micrograms/kg/injection, schedule: Q01DX009 (ip), vehicle: gum acacia
  T/C: 100 % of control
dose: 0.8 micrograms/kg/injection, schedule: Q01DX009 (ip), vehicle: saline + alcohol
  T/C: 124 % of control
dose: 0.8 micrograms/kg/injection, schedule: Q01DX009 (ip), vehicle: saline with Tween-80
  T/C: 162 % of control
dose: 1.0 micrograms/kg/injection, schedule: Q01DX009 (ip), vehicle: saline + alcohol
  T/C: 108 % of control
dose: 1.6 micrograms/kg/injection, schedule: Q01DX009 (ip), vehicle: saline + alcohol
  T/C: 238 % of control
dose: 1.6 micrograms/kg/injection, schedule: Q01DX009 (ip), vehicle: saline with Tween-80
  T/C: 175 % of control
dose: 2.0 micrograms/kg/injection, schedule: Q01DX009 (ip), vehicle: saline + alcohol
  T/C: 104 % of control
dose: 3.1 micrograms/kg/injection, schedule: Q01DX009 (ip), vehicle: saline + alcohol
  T/C: 153 % of control
dose: 3.1 micrograms/kg/injection, schedule: Q01DX009 (ip), vehicle: saline with Tween-80
  T/C: 175 % of control
dose: 6.3 micrograms/kg/injection, schedule: Q01DX009 (ip), vehicle: gum acacia
  T/C: 120 % of control
dose: 6.3 micrograms/kg/injection, schedule: Q01DX009 (ip), vehicle: saline + alcohol
  T/C: 175 % of control
dose: 12.5 micrograms/kg/injection, schedule: Q01DX009 (ip), vehicle: gum acacia
  T/C: 118 % of control
dose: 12.5 micrograms/kg/injection, schedule: Q01DX009 (ip), vehicle: saline + alcohol
  T/C: 179 % of control
dose: 25.0 micrograms/kg/injection, schedule: Q01DX009 (ip), vehicle: gum acacia
  T/C: 120 % of control
dose: 50.0 micrograms/kg/injection, schedule: Q01DX009 (ip), vehicle: gum acacia
  T/C: 124 % of control

## COC(=O)C1C2CCc3cc(OC)ccc3C2CC(=O)C1(C)C(=O)OC (configuration not stated)
dose: 100.0 mg/kg/injection, schedule: Q04DX003 (sc), vehicle: steriod suspending solution
  T/C: 109 % of control
dose: 200.0 mg/kg/injection, schedule: Q04DX003 (sc), vehicle: steriod suspending solution
  T/C: 90 % of control
dose: 400.0 mg/kg/injection, schedule: Q04DX003 (sc), vehicle: steriod suspending solution
  T/C: 95 % of control

## CCCCCCCCCCCCCC[N+](C)(C)CC(=O)O
[3]
  T/C: 103 % of control
dose: 25.0 mg/kg/injection, schedule: Q01DX009 (ip), vehicle: saline with Tween-80
  T/C: 106 % of control
dose: 50.0 mg/kg/injection, schedule: Q01DX009 (ip), vehicle: saline with Tween-80
  T/C: 113 % of control

## C[C@H](N)C(=O)N[C@@H]1[C@H]2C(=C(O)C[C@@H](O)[C@@H]2O)C(=O)O[C@@H]1C
dose: 100.0 mg/kg/injection, schedule: Q01DX010 (ip), vehicle: saline
  T/C: 162 % of control
dose: 133.0 mg/kg/injection, schedule: Q04DX003 (ip), vehicle: saline
  T/C: 112 % of control
dose: 266.0 mg/kg/injection, schedule: Q04DX003 (ip), vehicle: saline
  T/C: 119 % of control
dose: 400.0 mg/kg/injection, schedule: Q01DX010 (ip), vehicle: saline
  T/C: 162 % of control
dose: 532.0 mg/kg/injection, schedule: Q04DX003 (ip), vehicle: saline
  T/C: 120 % of control
dose: 800.0 mg/kg/injection, schedule: Q01DX010 (ip), vehicle: saline
  T/C: 175 % of control
dose: 2428.0 mg/kg/injection, schedule: Q04DX003 (ip), vehicle: saline
  T/C: 166 % of control

## O=C(/C=N/O)/C=N/O (tested in a mixture with another compound)
[1]
  T/C: 108 % of control
dose: 6.0 mg/kg/injection, schedule: Q04DX003 (ip), vehicle: saline
  T/C: 100 % of control
[2]
  T/C: 100 % of control
dose: 12.0 mg/kg/injection, schedule: Q04DX003 (ip), vehicle: saline
  T/C: 113 % of control
dose: 25.0 mg/kg/injection, schedule: Q01DX009 (ip), vehicle: saline
  T/C: 100 % of control
dose: 25.0 mg/kg/injection, schedule: Q04DX003 (ip), vehicle: saline
  T/C: 95 % of control

## C=CC[n+]1ccccc1C(c1ccccc1)c1ccccc1
dose: 6.25 mg/kg/injection, schedule: Q01DX009 (ip), vehicle: saline with Tween-80
  T/C: 116 % of control
[3]
  T/C: 120 % of control
dose: 12.5 mg/kg/injection, schedule: Q04DX003 (ip), vehicle: saline with Tween-80
  T/C: 91 % of control

## CC(=O)C(O)N1C(=O)C=CC1=O (configuration not stated)
dose: 0.31 mg/kg/injection, schedule: Q04DX003 (ip), vehicle: saline
  T/C: 95 % of control
dose: 0.62 mg/kg/injection, schedule: Q04DX003 (ip), vehicle: saline
  T/C: 100 % of control
dose: 1.25 mg/kg/injection, schedule: Q04DX003 (ip), vehicle: saline
  T/C: 100 % of control
dose: 2.5 mg/kg/injection, schedule: Q04DX003 (ip), vehicle: saline
  T/C: 91 % of control
dose: 5.0 mg/kg/injection, schedule: Q04DX003 (ip), vehicle: saline
  T/C: 91 % of control

## CCC(C)C1NC(=O)C2CCCN2C(=O)C(CC(C)C)OC(=O)CCNC(=O)C(C)N(C)C(=O)C(C(C)C)N(C)C1=O (configuration not stated) (cyclo([ξLac(3-iPr)]PI[NMeV][NMeA][βAla]); configuration not given here)
dose: 0.82 mg/kg/injection, schedule: Q01DX009 (ip), vehicle: saline
  T/C: 115 % of control
dose: 1.25 mg/kg/injection, schedule: Q01DX009 (ip), vehicle: saline
  T/C: 91 % of control
dose: 1.8 mg/kg/injection, schedule: Q01DX009 (ip), vehicle: saline
  T/C: 107 % of control
dose: 2.5 mg/kg/injection, schedule: Q01DX009 (ip), vehicle: saline
  T/C: 96 % of control
dose: 5.0 mg/kg/injection, schedule: Q01DX009 (ip), vehicle: saline
  T/C: 108 % of control
dose: 10.0 mg/kg/injection, schedule: Q01DX009 (ip), vehicle: saline
  T/C: 104 % of control
